Measurements: patent US6610710B2, “Phenylalanine derivatives” (Ajinomoto Co., Inc., priority 1999, dated 2003)

The compounds below were run against T1, integrin α4β7 (RPMI-8866 cells) binding with rat MAdCAM-1/human IgG1 chimera protein (Homo sapiens, UniProt P13612+P26010) (assay: Rat MAdCAM-1 antagonistic activity (rat MAdCAM-1/α4β7 binding assay), RPMI-8866 cell adhesion). Settings: 4 mM MnCl2, read-out: MadCAM/α 4 β 7 antagonistic activity to integrin (IC50).
T1 construct: lymphoma cell strain RPMI-8866 of human B cells, known to express integrin α4β7; endogenous in cells; host or cells: RPMI-8866 (human B-cell lymphoma line)
T1 sequence (P13612 34-1032): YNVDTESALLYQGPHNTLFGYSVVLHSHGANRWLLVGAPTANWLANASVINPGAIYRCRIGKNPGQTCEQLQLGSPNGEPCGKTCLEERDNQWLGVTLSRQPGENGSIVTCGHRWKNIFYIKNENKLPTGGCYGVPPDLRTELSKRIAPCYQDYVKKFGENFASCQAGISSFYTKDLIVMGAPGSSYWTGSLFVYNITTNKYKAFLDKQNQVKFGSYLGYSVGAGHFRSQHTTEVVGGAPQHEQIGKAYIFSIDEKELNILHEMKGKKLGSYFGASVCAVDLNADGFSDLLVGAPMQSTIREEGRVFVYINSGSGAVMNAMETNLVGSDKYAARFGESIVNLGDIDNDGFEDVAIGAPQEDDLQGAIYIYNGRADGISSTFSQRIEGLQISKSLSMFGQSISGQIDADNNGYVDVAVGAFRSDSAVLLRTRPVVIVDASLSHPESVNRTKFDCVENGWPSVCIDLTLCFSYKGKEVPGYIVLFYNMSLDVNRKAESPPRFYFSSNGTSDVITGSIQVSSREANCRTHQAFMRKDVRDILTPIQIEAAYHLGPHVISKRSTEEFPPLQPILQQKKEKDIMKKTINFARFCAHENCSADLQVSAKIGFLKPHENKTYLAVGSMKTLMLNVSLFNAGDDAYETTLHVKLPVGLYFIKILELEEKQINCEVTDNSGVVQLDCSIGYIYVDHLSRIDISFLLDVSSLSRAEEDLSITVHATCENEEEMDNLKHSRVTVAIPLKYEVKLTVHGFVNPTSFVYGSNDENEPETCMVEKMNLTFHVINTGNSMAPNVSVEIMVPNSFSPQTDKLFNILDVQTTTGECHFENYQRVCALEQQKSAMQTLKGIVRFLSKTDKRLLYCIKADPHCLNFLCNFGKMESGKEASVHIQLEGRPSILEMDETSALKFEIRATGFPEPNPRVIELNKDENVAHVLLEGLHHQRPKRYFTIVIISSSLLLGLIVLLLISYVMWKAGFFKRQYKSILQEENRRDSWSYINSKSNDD
T1 sequence (P26010 20-798): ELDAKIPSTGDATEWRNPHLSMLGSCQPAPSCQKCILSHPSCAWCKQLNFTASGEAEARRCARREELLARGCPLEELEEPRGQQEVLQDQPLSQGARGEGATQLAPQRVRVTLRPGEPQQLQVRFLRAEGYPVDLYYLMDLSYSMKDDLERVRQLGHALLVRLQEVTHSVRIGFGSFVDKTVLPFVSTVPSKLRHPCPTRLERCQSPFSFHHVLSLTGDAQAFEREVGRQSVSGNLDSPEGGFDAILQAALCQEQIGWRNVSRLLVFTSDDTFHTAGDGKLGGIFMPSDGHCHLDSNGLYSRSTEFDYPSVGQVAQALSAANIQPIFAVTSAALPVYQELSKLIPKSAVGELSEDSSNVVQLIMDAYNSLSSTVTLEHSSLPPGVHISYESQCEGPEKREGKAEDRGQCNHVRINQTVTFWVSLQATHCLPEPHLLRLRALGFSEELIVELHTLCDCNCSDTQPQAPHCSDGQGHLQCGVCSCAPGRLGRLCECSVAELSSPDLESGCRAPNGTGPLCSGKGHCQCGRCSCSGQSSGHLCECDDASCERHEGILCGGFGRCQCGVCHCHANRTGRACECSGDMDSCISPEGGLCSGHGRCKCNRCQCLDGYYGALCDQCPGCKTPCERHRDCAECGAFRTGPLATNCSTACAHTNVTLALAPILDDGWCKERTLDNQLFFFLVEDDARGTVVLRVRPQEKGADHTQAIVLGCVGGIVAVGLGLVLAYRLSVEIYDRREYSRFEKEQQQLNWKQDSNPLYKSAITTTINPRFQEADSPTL
Format: cell-based
Method: (Test Example) Rat MAdCAM-1 Antagonistic Activity (rat MAdCAM-1/α4β7 Binding Assay):
The capacity of a test substance antagonistic to the binding of lymphoma cell strain RPMI-8866 of human B cells, known to express integrin α4β7, with rat MAdCAM-1/human IgG1 chimera protein was determined.
100 μl/well of human IgG1 antibody (SIGMA #I-6260) diluted with buffer A to 1/1,000 concentration was added to a micro titer plate having 96 wells. After the incubation at 4° C. overnight, the plate was washed with PBS once. 100 μl/well of rat MAdCAM-1/human IgG1 chimera protein solution diluted with a buffer (buffer C)obtained by diluting Block Ace® (Dainippon Pharmaceutical Co., Ltd.) with PBS to 1/10 concentration was added in an amount of 100 μl/well. After the incubation at 37° C. for 2 hours, unbound MAdCAM-1/IgG was removed by washing once with PBS. After completion of the washing, 150 μl/well of buffer B was added and the incubation was continued at room temperature for 1 hour. Buffer B was removed and then the plate was washed with PBS once.
RPMI-8866 cells were incubated in DMEM containing 10 μg/ml of Calcein-AM at 37° C. for 30 minutes to label them with fluorescence. The cells were again suspended in a binding buffer containing 4 mM of MnCl2.
50 μl of a test substance of various concentrations obtained by the dilution with the binding buffer was added to the plate. Immediately thereafter, 50 μl (final volume: 100 μl/well) of the fluorescent RPMI-8866 cells (4×10^6 cells/ml ) were added thereto, and they were incubated at room temperature for 30 minutes. After the shaking on a plate shaker (IKA MTS-4) at 800 rpm for 30 seconds, the solution was immediately removed to remove the unbound cells. The fluorescence quantity of the bound cells remaining in the wells was determined with a fluorescent plate reader (Wallac 1420 ARVO multi-label counter). The fluorescent strength thus obtained is proportional to the number of RPMI-8866 cells bound to MAdCAM-1 and remaining on the plate. The binding rate of each test material in various concentrations was determined while the fluorescent strength of the test material-free well was determined to be 100%. The concentration IC50 for the 50% binding inhibition was calculated.

**Q.** O=C(O)[C@H](Cc1ccc(OCc2c(Cl)cccc2Cl)cc1)NC(=O)[C@H]1CC[C@H](C(=O)O)CC1 [Example 2, N-(Trans-4-carboxycyclohexane-1-carbonyl)-O-(2,6-dichlorobenzyl)-L-tyrosine] was tested. Which IC50 did it give?
**A.** ≤ 0.2 µM

**Q.** How did the IC50 turn out when O=C(O)[C@H](Cc1ccc(OCc2c(Cl)cccc2Cl)cc1)NC(=O)[C@H]1CC[C@H](C(=O)NNc2ccccc2)CC1 [Example 3, N-(Trans-4-phenylhydrazinocarbonylcyclohexane-1-carbonyl)-O-(2,6-dichlorobenzyl)-L-tyrosine] was run?
**A.** 0.2 to 1 µM

**Q.** O=C(O)[C@H](Cc1ccc(OCc2c(Cl)cccc2Cl)cc1)NC(=O)[C@H]1CC[C@H](C(=O)NNc2ccc(Br)cc2)CC1 [Example 4, N-[Trans-4-(4-bromophenylhydrazinocarbonyl)cyclohexane-1-carbonyl]-O-(2,6-dichlorobenzyl)-L-tyrosine] was tested. Which IC50 did it give?
**A.** 0.2 to 1 µM

**Q.** Which IC50 does the source give for O=C(O)[C@H](Cc1ccc(OCc2c(Cl)cccc2Cl)cc1)NC(=O)[C@H]1CC[C@H](C(=O)NCc2ccccc2)CC1 [Example 6] here?
**A.** 1 to 5 µM

**Q.** Which IC50 does the source give for COc1ccc(NNC(=O)[C@H]2CC[C@H](C(=O)N[C@@H](Cc3ccc(OCc4c(Cl)cccc4Cl)cc3)C(=O)O)CC2)cc1 [Example 14] here?
**A.** 0.2 to 1 µM

**Q.** Cc1ccc(NNC(=O)[C@H]2CC[C@H](C(=O)N[C@@H](Cc3ccc(OCc4c(Cl)cccc4Cl)cc3)C(=O)O)CC2)cc1 [Example 34] was tested. Which IC50 did it give?
**A.** 0.2 to 1 µM

**Q.** O=C(O)[C@H](Cc1ccc(OCc2c(Cl)cccc2Cl)cc1)NC(=O)[C@H]1CC[C@H](C(=O)NNc2ccc(OC(F)(F)F)cc2)CC1 [Example 35] was tested. Which IC50 did it give?
**A.** 1 to 5 µM

**Q.** COc1cccc(NNC(=O)[C@H]2CC[C@H](C(=O)N[C@@H](Cc3ccc(OCc4c(Cl)cccc4Cl)cc3)C(=O)O)CC2)c1 [Example 44] was tested. Which IC50 did it give?
**A.** 0.2 to 1 µM

**Q.** For O=C(Nc1ccc(C[C@H](NC(=O)[C@H]2CC[C@H](C(=O)O)CC2)C(=O)O)cc1)c1snnc1-c1ccccc1 [Example 45, N-(Trans-4-carboxycyclohexane-1-carbonyl)-4-{[(4-phenyl-1,2,3-thiadiazole-5-yl)carbonyl]amino}-L-phenylalanine], which IC50 is on record?
**A.** 1 to 5 µM

**Q.** With COc1ccc(NNC(=O)[C@H]2CC[C@H](C(=O)N[C@@H](Cc3ccc(NC(=O)c4snnc4-c4ccccc4)cc3)C(=O)O)CC2)cc1 [Example 46, N-[Trans-4-(4-methoxyphenylhydrazinocarbonyl)cyclohexane-1-carbonyl]-4-{[(4-phenyl-1,2,3-thiadiazole-5-yl)carbonyl]amino}-L-phenyl-alanine] as the compound, how does the IC50 read?
**A.** 1 to 5 µM

**Q.** With COc1cccc(OC)c1-c1ccc(C[C@H](NC(=O)[C@H]2CC[C@H](C(=O)O)CC2)C(=O)O)cc1 [Example 50, N-(Trans-4-carboxycyclohexane-1-carbonyl)-4-(2,6-dimethoxyphenyl)-L-phenylalanine] as the compound, how does the IC50 read?
**A.** 1 to 5 µM

**Q.** With COc1ccc(NNC(=O)[C@H]2CC[C@H](C(=O)N[C@@H](Cc3ccc(-c4c(OC)cccc4OC)cc3)C(=O)O)CC2)cc1 [Example 51, N-[Trans-4-(4-methoxyphenylhydrazinocarbonyl)cyclohexane-1-carbonyl]-4-(2,6-dimethoxyphenyl)-L-phenylalanine] as the compound, how does the IC50 read?
**A.** 0.2 to 1 µM
